For orientation: IC50 means the concentration that inhibits the measured activity by half. Read a low IC50 as inhibition by little substance.

A value given as a limit tells only on which side of the number the result lay.

The values that follow come from patent US10723708B2, “Anti-HCMV compositions and methods” (FORGE Life Science, LLC, priority 2014, dated 2020).

The subject of the assay is human cytomegalovirus (HCMV). The assay can be described thus: Antiviral activity against HCMV, virus yield/replication assay in MRC5 cells. It counts as cell-based. The settings on record: Human betaherpesvirus 5; infected human MRC5 cells; virus yield in supernatant at 96 hours / four days, read by IE protein expression in fresh MRC5 cells. The procedure: Assessing Antiviral Activity Against Human Cytomegalovirus (HCMV)
To assess their antiviral activity, some compounds were tested against human cytomegalovirus (HCMV) in vitro. Human MRC5 cells were grown in Dulbecco's Modified Eagle Medium (DMEM) supplemented with 10% fetal bovine serum (FBS) and infected with an HCMV variant expressing GFP tagged pUL99 (the product of late viral UL99 gene) at a multiplicity of 1 infectious unit (IU) per cell. One hour later, medium of the cells was replaced with fresh medium containing the indicated compounds at 50, 25, 12.5, 6.25, 3.13, 1.56, 0.78, 0.39 μM or the carrier in which the compounds are dissolved (DMSO). Final concentration of DMSO was 0.5% in each treatment. Virus yield in the culture supernatant was determined at 96 hours after infection by infecting fresh MRC5 cells and assaying viral IE1 protein expression. Results were plotted using either Prism Software or CDD Vault (CDD Vault was developed by Collaborative Drug Discovery, Inc., 1633 Bayshore Hwy, Suite 342, Burlingame, Calif. 94010) in order to calculate IC50s.
Alternatively, antiviral efficacy of some compounds was assessed by inhibition of HCMV replication during in vitro replication assays. Briefly, confluent monolayers of MRC5 fibroblasts in a 96 well plate format (˜1.0×10^4 cells/well) were infected with an AD169 strain of HCMV for one hour. After the initial incubation hour, virus containing media was removed and 100 ul of media with sequential dilutions of FORGE compounds added to each well. The concentrations of the FORGE compounds were 50 μM, 25 μM, […], 6.25 μM, 3.125 μM, 1.56 μM, and 0.78125 μM as well as a vehicle control (0.5% DMSO). The concentration of DMSO was constant between all conditions. Assays were performed in duplicate. Infected plates were returned to the incubator and the viral infection was allowed to progress for four days. On the fourth day, 50 μL of cell free supernatant was collected from each well and used to infect a new 96 well plate seeded with a confluent monolayer of MRC5 fibroblasts along with 50 μL of media to bring the total volume to 100 μL. The next day the media was removed and the infected monolayer was fixed with cold methanol, and Immediate Early proteins were detected by immunofluorescence assays to quantify the number of cells that were infected with HCMV. IE gene expression was quantified within five random fields within each well and corresponding numbers were utilized to determine viral replication. Results from each well were normalized to the vehicle control well so as to allow a percent reduction from no drug treatment to be calculated. Results were plotted using either Prism Software or CDD Vault in order to calculate IC50s.

`COc1ccc(C(C)CCNc2cnc3ccccc3c2)cc1` (stereo not drawn) [Example 1] yielded an IC50 of 25 to 50 µM.

`COc1ccc(C(C)CC(=O)Nc2cnc3ccccc3c2)cc1` (stereo not drawn) [Example 2] gave an IC50 of more than 50 µM.

Compound `COc1cccc(C(C)CCNc2cnc3ccccc3c2)c1` (stereo not drawn) [Example 3] returned an IC50 of 25 to 50 µM.

As for `COc1cccc(C(C)CC(=O)Nc2cnc3ccccc3c2)c1` (stereo not drawn) [Example 4], inhibition was half-maximal at 21.2 ± 14.5 µM (IC50).

With `CC(CCNc1cnc2ccccc2c1)c1ccccc1Cl` (stereo not drawn) [Example 5], the IC50 worked out at 18.6 ± 4.62 µM.

In turn, `CC(CC(=O)Nc1cnc2ccccc2c1)c1ccccc1Cl` (stereo not drawn) [Example 6] gave an IC50 of 21.1 ± 14.5 µM.

Turning to `CC(CCNc1cnc2ccccc2c1)c1ccccc1` (stereo not drawn) [Example 7], the IC50 is more than 50 µM.

As for `CC(CC(=O)Nc1cnc2ccccc2c1)c1ccccc1` (stereo not drawn) [Example 8], the IC50 was determined as 3.03 ± 0.69 µM.

Regarding `COc1ccc(C(C)CCNc2ccc3ncccc3c2)cc1` (stereo not drawn) [Example 9], it took 2.41 ± 0.04 µM to reach half-maximal inhibition (IC50).

Regarding `COc1ccc(C(C)CC(=O)Nc2ccc3ncccc3c2)cc1` (stereo not drawn) [Example 10], the IC50 stood at 5.82 ± 1.98 µM.

Compound `COc1cccc(C(C)CCNc2ccc3ncccc3c2)c1` (stereo not drawn) [Example 11] yielded an IC50 of 5.75 ± 2.47 µM.

In turn, `COc1cccc(C(C)CC(=O)Nc2ccc3ncccc3c2)c1` (stereo not drawn) [Example 12] displayed an IC50 of 3.34 ± 1.45 µM.

`COc1ccccc1C(C)CCNc1ccc2ncccc2c1` (stereo not drawn) [Example 13] gave an IC50 of 23.4 ± 0.6 µM. This IC50 is about 7-fold higher than that of the compound before.

Compound `COc1ccccc1C(C)CC(=O)Nc1ccc2ncccc2c1` (stereo not drawn) [Example 14] gave an IC50 of 2.2 ± 1.32 µM.

In turn, `COc1ccc(C(C)CCNc2cccc3cccnc23)cc1` (stereo not drawn) [Example 15] returned an IC50 of 3.27 ± 0.41 µM.

For `COc1ccc(C(C)CC(=O)Nc2cccc3cccnc23)cc1` (stereo not drawn) [Example 16], inhibition was half-maximal at 26.9 ± 11.5 µM (IC50). Compared with the last compound, the IC50 is about 8.2-fold higher.

`COc1cccc(C(C)CCNc2cccc3cccnc23)c1` (stereo not drawn) [Example 17] gave an IC50 of 2.69 ± 0.94 µM.

`COc1cccc(C(C)CC(=O)Nc2cccc3cccnc23)c1` (stereo not drawn) [Example 18] came in with an IC50 of more than 50 µM.

Regarding `COc1ccccc1C(C)CCNc1cccc2cccnc12` (stereo not drawn) [Example 19], the IC50 amounted to 1.28 ± 0.16 µM.

`COc1ccccc1C(C)CC(=O)Nc1cccc2cccnc12` (stereo not drawn) [Example 20] yielded an IC50 of 19.7 ± 14.7 µM.

With `CC(CCNc1cccc2cccnc12)c1ccccc1Cl` (stereo not drawn) [Example 21], it took 1.2 ± 0.52 µM to reach half-maximal inhibition (IC50).

As to `CC(CC(=O)Nc1cccc2cccnc12)c1ccccc1Cl` (stereo not drawn) [Example 22], the midpoint of inhibition, the IC50, lay at 1.28 ± 1.82 µM.

In turn, `Cc1ccccc1C(C)CCNc1cccc2cccnc12` (stereo not drawn) [Example 23] displayed an IC50 of 2.01 ± 0.71 µM.

In the case of `Cc1ccccc1C(C)CC(=O)Nc1cccc2cccnc12` (stereo not drawn) [Example 24], the IC50 was more than 50 µM.

The compound `COc1ccccc1C(C)C(F)CNc1cccc2cccnc12` (stereo not drawn) [Example 25] came in with an IC50 of 3.73 ± 0.46 µM.

Consider `COc1ccccc1C(C)C(F)C(=O)Nc1cccc2cccnc12` (stereo not drawn) [Example 26], for which the half-inhibitory concentration (IC50) was 5.38 ± 3.93 µM.

For `COc1ccccc1C(C)C(O)CNc1cccc2cccnc12` (stereo not drawn) [Example 27], the half-inhibitory concentration (IC50) was 28.5 ± 2.68 µM.

`COc1ccccc1C(C)C(C)CNc1cccc2cccnc12` (stereo not drawn) [Example 28] had an IC50 of 2.89 ± 0.95 µM.

For `COc1ccccc1C(C)C(C)C(=O)Nc1cccc2cccnc12` (stereo not drawn) [Example 29], the IC50 is 11.5 ± 7.71 µM.

In the case of `COc1ccccc1CCCNc1cccc2cccnc12` [Example 30], it took 12.1 ± 8.44 µM to reach half-maximal inhibition (IC50).

In turn, `COc1ccccc1CCC(=O)Nc1cccc2cccnc12` [Example 31] showed an IC50 of more than 50 µM.

`CCC(CCNc1cccc2cccnc12)c1ccccc1OC` (stereo not drawn) [Example 32] returned an IC50 of 2.25 ± 0.33 µM.

`CCC(CC(=O)Nc1cccc2cccnc12)c1ccccc1OC` (stereo not drawn) [Example 33] showed an IC50 of 5.3 ± 0.31 µM. This IC50 lies about 2.4-fold higher than the previous one.

With `CC(CCNc1cccc2cccnc12)c1ccccn1` (stereo not drawn) [Example 34], the IC50 was more than 50 µM.

On to `CC(CC(=O)Nc1cccc2cccnc12)c1ccccn1` (stereo not drawn) [Example 35], for which the IC50 is more than 50 µM.

`COc1ccccc1C(C)CCn1ccc2ccccc21` (stereo not drawn) [Example 36] had an IC50 of more than 50 µM.

On to `COc1ccccc1C(C)CC(=O)n1ccc2ccccc21` (stereo not drawn) [Example 37], for which the IC50 was more than 50 µM.

In the case of `COc1ccccc1C(C)CCNc1cccc2nccnc12` (stereo not drawn) [Example 38], inhibition was half-maximal at 3.61 ± 0.54 µM (IC50).

Take `COc1ccccc1C(C)CC(=O)Nc1cccc2nccnc12` (stereo not drawn) [Example 39]: the IC50 was more than 50 µM.

The compound `COc1ccccc1C(C)CCNc1cccc2ccccc12` (stereo not drawn) [Example 40] came in with a half-inhibitory concentration (IC50) of 2.83 ± 0.28 µM.

In turn, `COc1ccccc1C(C)CC(=O)Nc1cccc2ccccc12` (stereo not drawn) [Example 41] had an IC50 of 29.2 ± 17.8 µM. This IC50 lies about 10-fold higher than the previous one.

For the compound `COc1ccccc1C(C)CCNc1cccc2[nH]ccc12` (stereo not drawn) [Example 42], the midpoint of inhibition, the IC50, lay at 1.32 ± 0.84 µM.

For `COc1ccccc1C(C)CC(=O)Nc1cccc2[nH]ccc12` (stereo not drawn) [Example 43], the IC50 is 12.5 ± 4.14 µM.

For the compound `COc1ccccc1C(C)CCNc1ccccc1` (stereo not drawn) [Example 44], the IC50 is more than 50 µM.

Take `COc1ccccc1C(C)CC(=O)Nc1ccccc1` (stereo not drawn) [Example 45]: the IC50 is more than 50 µM.

For `COc1ccc(Br)cc1C(C)CCNc1cccc2cccnc12` (stereo not drawn) [Example 46], the IC50 turned out to be 21.7 ± 2.48 µM.

In turn, `COc1ccc(Br)cc1C(C)CC(=O)Nc1cccc2cccnc12` (stereo not drawn) [Example 47] showed an IC50 of 5.88 ± 1.93 µM. This IC50 is about 3.7-fold lower than that of the compound before.

In turn, `CC(CCNc1cccc2cccnc12)c1ccccc1` (stereo not drawn) [Example 48] came in with an IC50 of more than 50 µM.

`CC(CC(=O)Nc1cccc2cccnc12)c1ccccc1` (stereo not drawn) [Example 49] yielded an IC50 of more than 50 µM.

`CC(CCNc1cccc2cccnc12)c1ccccc1Br` (stereo not drawn) [Example 50] displayed an IC50 of 2.92 ± 1.26 µM.

`CC(CCNc1cccc2cccnc12)c1c(Cl)cccc1Cl` (stereo not drawn) [Example 51] showed an IC50 of 1.94 ± 0.51 µM.

`CC(CCOc1cccc2cccnc12)c1ccccc1Cl` (stereo not drawn) [Example 52] registered an IC50 of 1.98 ± 0.68 µM.

With `CC(CCNc1ccc(Br)c2cccnc12)c1ccccc1` (stereo not drawn) [Example 53], the IC50 was 11.6 ± 0.36 µM. Against the preceding compound, the IC50 is about 5.9-fold higher.

`CC(CNc1cccc2nccnc12)C(C)c1ccc(Cl)cc1Cl` (stereo not drawn) [Example DV7016]: the IC50 stood at 23.1 µM.

Compound `CC(CNc1cccc2nccnc12)C(C)c1cc(Cl)ccc1Cl` (stereo not drawn) [Example FLS-114] came in with an IC50 of 6.4 µM. Compared with the last compound, the IC50 is about 3.6-fold lower.

Take `CC(CNc1cccc2[nH]ccc12)C(C)c1ccccc1Cl` (stereo not drawn) [Example FLS-116]: the IC50 was determined as 3.5 µM.

Turning to `CC(CNc1cccc2nccnc12)c1ccccc1Cl` (stereo not drawn) [Example FLS-117], the midpoint of inhibition, the IC50, lay at 3.2 µM. This IC50 and that of the compound before are within 1.5-fold of each other.

Compound `CC(CNc1cccc2nccnc12)c1cc(Cl)ccc1Cl` (stereo not drawn) [Example FLS-118] returned an IC50 of 3.2 µM.

`CC(CNc1cccc2nccnc12)c1cc(Cl)cc(Cl)c1` (stereo not drawn) [Example FLS-119] displayed an IC50 of 2.7 µM.

`CC(CNc1cccc2[nH]ccc12)c1ccccc1Cl` (stereo not drawn) [Example FLS-120] gave an IC50 of 5 µM.

Compound `CC(CCNc1ccc(Br)c2cccnc12)c1ccccc1Cl` (stereo not drawn) [FH000006-K-6] came in with an IC50 of 7.9 µM.

As to `CC(CCC(=O)Nc1cccc2cccnc12)c1ccccc1Cl` (stereo not drawn) [FH000006-K-8-A], the IC50 amounted to 4.5 µM. This IC50 lies about 1.8-fold lower than the previous one.

As to `CC(CCCNc1cccc2cccnc12)c1ccccc1Cl` (stereo not drawn) [FH000006-K-8], the midpoint of inhibition, the IC50, lay at 6.3 µM.
